Read-outs that look alike come from different tables or passages of the source. Where no end group is shown, it is not given here.
Tests used:
[1] = system: HLA DRB 1-4; conditions: published studies; cited from earlier work
[2] = system: HLA-DRB1_4; type: cell-based, human; conditions: for MCR surface expression: peptide covalently linked to beta chain, anti-HLA-DR APC antibody, FACS

Row | Substance | presentation by HLA [1] | MCR surface expression [2] | other results
1 | MP1 107-121: MP1 peptide comprising amino acids 107-121, known from published studies (Schmid et al Immunity 2007) (ITFHGAKEISLSYSA; UniProt P03485 107-121, looked up, fragment) | efficiently presented |  | 
2 | MP1103-120: influenza Matrix Protein 1 peptide, amino acids 103-120, covalently linked to the HLA beta chain of the MCR (LKREITFHGAKEISLSYS; also: covalently linked to HLA beta chain of the MCR; UniProt P03485 103-120, looked up, fragment) |  | efficient surface expression | MCR surface expression ([2]; listed as MP1103-121): high surface expression
3 | MP1107-117: core epitope of influenza Matrix Protein 1, amino acids 107-117, tested within peptides with different flanking regions (ITFHGAKEISL; UniProt P03485 107-117, looked up, fragment) |  |  | presentation (MCR surface expression) ([2]; FIG. 6, anti-CD3e or anti-HLA-DR PE antibodies, peptides containing the core epitope with different flanking regions): efficiently be presented
4 | MP1 103-117: MP1 peptide comprising amino acids 103-117, known from published studies (Schmid et al Immunity 2007) (LKREITFHGAKEISL; UniProt P03485 103-117, looked up, fragment) | efficiently presented |  | 
5 | MP162-72: influenza Matrix Protein 1-derived peptide comprising amino acids 62-72, covalently linked to the HLA beta chain of the MCR (FVFTLTVPSER; also: covalently linked to HLA beta chain of the MCR; UniProt P03485 62-72, looked up, fragment) |  | not the other HLAs tested | 

Source: patent US20210132065A1, “MAMMALIAN MHC PEPTIDE DISPLAY AS AN EPITOPE SELECTION TOOL FOR VACCINE DESIGN” (ETH Zürich, priority 2018, published 2021)
